In patent publication US20230148214A1, “INDAZOLES AND AZAINDAZOLES AS LRRK2 INHIBITORS” (ESCAPE Bio, Inc., priority 2020, published 2023):

Assays:
LRRK2 WT = target: T1, LRRK2 WT (Homo sapiens, UniProt Q5S007); assay: LRRK2 Kinase Activity Assay (LanthaScreen TR-FRET), wild type; assay type: biochemical; conditions: recombinant wild type LRRK2, 25 μM ATP, 400 nM LRRKtide, 60 min; class symbols
T1 construct: purchased Life Technologies PR8604B
Procedure, shortened: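 Recombinant wild-type or G2019S LRRK2 incubated with fluorescein-labeled LRRKtide (ERM-based) peptide, ATP and serially diluted compound for 60 min at room temperature.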

LRRK2 G2019S = target: T2, LRRK2 G2019S (Homo sapiens, UniProt Q5S007, G2019S); assay: LRRK2 Kinase Activity Assay (LanthaScreen TR-FRET), G2019S; assay type: biochemical; conditions: recombinant G2019S-LRRK2, 25 μM ATP, 400 nM LRRKtide, 60 min; class symbols
T2 construct: purchased Life Technologies PV4881
Experimental: LRRK2 kinase activity was measured using a LanthaScreen™ Kinase Activity Assay from ThermoFisher Scientific. Recombinant wild type or G2019S-LRRK2 protein (Life Technologies, PR8604B or PV4881, respectively), was incubated with a fluorescein-labeled peptide substrate called LRRKtide that is based upon ezrin/radixin/moesin (ERM) (Life Technologies, PV4901) in the presence of ATP and serially diluted compound. […] Compound-dependent inhibition of the TR-FRET signal was used to generate a concentration-response curve for IC50 determination.
After 60 min incubation at room temperature, the reaction was stopped by addition of 10 μL of 2×stop solution containing a final concentration of 2 nM anti-pERM antibody and 10 mM EDTA.

T1 sequence (Q5S007 whole entry): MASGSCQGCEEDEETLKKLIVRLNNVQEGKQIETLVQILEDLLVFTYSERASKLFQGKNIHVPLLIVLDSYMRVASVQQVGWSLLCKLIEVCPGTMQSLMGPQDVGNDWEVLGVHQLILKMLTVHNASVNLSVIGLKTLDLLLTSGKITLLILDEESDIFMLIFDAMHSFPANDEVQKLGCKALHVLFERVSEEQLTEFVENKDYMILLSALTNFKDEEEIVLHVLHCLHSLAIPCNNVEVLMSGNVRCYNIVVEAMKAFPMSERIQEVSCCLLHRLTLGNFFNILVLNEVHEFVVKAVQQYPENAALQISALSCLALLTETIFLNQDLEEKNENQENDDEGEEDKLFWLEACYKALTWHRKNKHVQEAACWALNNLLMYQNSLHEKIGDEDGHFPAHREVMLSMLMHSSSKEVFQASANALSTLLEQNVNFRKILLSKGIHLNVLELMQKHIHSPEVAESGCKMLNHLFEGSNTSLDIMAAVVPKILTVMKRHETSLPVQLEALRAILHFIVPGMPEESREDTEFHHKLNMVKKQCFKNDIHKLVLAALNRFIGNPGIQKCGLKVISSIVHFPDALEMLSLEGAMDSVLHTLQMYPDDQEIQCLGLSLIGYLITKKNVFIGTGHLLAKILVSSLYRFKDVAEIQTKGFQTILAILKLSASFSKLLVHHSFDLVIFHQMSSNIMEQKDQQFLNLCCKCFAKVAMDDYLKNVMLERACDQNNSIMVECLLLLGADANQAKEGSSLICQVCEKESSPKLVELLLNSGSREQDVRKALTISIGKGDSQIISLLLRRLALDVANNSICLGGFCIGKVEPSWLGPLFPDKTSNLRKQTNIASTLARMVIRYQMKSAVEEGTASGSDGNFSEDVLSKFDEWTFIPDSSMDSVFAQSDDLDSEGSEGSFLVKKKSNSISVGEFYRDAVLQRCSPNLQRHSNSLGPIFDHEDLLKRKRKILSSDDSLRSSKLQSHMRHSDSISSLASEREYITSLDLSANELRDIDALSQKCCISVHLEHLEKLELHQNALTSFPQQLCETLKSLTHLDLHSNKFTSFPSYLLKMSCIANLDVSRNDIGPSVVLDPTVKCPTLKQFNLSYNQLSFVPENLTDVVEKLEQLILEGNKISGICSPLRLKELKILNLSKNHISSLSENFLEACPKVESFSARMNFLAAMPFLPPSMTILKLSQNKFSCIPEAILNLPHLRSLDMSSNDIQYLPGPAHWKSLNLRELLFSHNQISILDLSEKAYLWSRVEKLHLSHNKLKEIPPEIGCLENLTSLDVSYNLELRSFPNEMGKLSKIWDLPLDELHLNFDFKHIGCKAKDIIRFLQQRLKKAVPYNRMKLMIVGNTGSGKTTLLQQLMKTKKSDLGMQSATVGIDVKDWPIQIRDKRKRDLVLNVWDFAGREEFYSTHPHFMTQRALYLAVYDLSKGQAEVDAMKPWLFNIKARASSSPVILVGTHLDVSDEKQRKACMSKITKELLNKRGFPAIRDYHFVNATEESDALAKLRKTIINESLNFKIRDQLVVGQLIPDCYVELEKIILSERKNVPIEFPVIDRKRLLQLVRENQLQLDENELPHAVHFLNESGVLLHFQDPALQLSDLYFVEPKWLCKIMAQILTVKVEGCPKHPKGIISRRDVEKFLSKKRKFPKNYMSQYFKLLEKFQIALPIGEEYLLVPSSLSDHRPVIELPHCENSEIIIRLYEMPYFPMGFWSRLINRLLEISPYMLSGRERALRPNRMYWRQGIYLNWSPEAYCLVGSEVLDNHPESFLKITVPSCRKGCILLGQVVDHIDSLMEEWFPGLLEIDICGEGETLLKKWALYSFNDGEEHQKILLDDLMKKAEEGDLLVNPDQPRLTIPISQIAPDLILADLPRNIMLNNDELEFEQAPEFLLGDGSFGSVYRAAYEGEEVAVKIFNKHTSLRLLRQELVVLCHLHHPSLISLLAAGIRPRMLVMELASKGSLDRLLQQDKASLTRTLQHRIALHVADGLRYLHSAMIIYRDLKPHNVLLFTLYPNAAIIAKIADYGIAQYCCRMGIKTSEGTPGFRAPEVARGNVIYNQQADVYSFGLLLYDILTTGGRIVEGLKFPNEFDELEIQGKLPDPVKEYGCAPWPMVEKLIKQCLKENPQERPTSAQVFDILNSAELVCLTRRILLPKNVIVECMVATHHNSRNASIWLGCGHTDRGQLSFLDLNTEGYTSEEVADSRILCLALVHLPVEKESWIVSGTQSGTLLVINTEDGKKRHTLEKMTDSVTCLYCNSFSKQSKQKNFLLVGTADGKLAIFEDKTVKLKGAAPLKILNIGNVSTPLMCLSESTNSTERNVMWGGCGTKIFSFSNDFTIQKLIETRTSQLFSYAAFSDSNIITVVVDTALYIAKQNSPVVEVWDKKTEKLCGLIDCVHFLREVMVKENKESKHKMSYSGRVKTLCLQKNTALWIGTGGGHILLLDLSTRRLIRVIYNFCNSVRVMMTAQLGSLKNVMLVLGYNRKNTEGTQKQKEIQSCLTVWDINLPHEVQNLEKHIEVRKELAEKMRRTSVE
T2 sequence (Q5S007 whole entry G2019S): as the sequence (Q5S007 whole entry) above, with G2019S counted along it

With `N#Cc1cc2c(nc1Cl)[C@@H](Oc1ccc3[nH]nc(C4CC4)c3c1)CCC2` (single isomer, unassigned) [181, enantiomer 2, 2-Chloro-8-[(3-cyclopropyl-1H-indazol-5-yl)oxy]-5,6,7,8-tetrahydroquinoline-3-carbonitrile] the IC50 (LRRK2 WT) was 0.1 to 1 µM and the IC50 (LRRK2 G2019S) was < 0.1 µM.
With `N#Cc1cnc2c(n1)CC[C@@H]2Oc1ccc2[nH]nc(-c3cnco3)c2c1` (single isomer, unassigned) [182, enantiomer 1, 5-((3-(Oxazol-5-yl)-1H-indazol-5-yl)oxy)-6,7-dihydro-5H-cyclopenta[b]pyrazine-2-carbonitrile] the IC50 (LRRK2 WT) was < 0.1 µM and the IC50 (LRRK2 G2019S) was < 0.1 µM.
An IC50 (LRRK2 WT) of 1 to 10 µM and an IC50 (LRRK2 G2019S) of 0.1 to 1 µM were found for `Cc1c(C#N)c(Cl)nc2c1CCC[C@@H]2Nc1ccc2[nH]nc(C3CC3)c2c1` (single isomer, unassigned) [183, enantiomer 1, 2-Chloro-8-[(3-cyclopropyl-1H-indazol-5-yl)amino]-4-methyl-5,6,7,8-tetrahydroquinoline-3-carbonitrile] in this work.
With `Cc1c(C#N)c(Cl)nc2c1CCC[C@@H]2Nc1ccc2[nH]nc(C3CC3)c2c1` (single isomer, unassigned) [183, enantiomer 2, 2-Chloro-8-[(3-cyclopropyl-1H-indazol-5-yl)amino]-4-methyl-5,6,7,8-tetrahydroquinoline-3-carbonitrile] the IC50 (LRRK2 WT) was < 0.1 µM and the IC50 (LRRK2 G2019S) was < 0.1 µM.
In the case of `Cc1c(C#N)c(Cl)nc2c1CCC[C@@H]2Oc1ccc2[nH]nc(C3CC3)c2c1` (single isomer, unassigned) [184, enantiomer 1, 2-Chloro-8-[(3-cyclopropyl-1H-indazol-5-yl)oxy]-4-methyl-5,6,7,8-tetrahydroquinoline-3-carbonitrile], the IC50 (LRRK2 WT) is reported as < 0.1 µM and the IC50 (LRRK2 G2019S) is reported as < 0.1 µM.
With `Cc1c(C#N)c(Cl)nc2c1CCC[C@@H]2Oc1ccc2[nH]nc(C3CC3)c2c1` (single isomer, unassigned) [184, enantiomer 2, 2-Chloro-8-[(3-cyclopropyl-1H-indazol-5-yl)oxy]-4-methyl-5,6,7,8-tetrahydroquinoline-3-carbonitrile] the IC50 (LRRK2 WT) was 1 to 10 µM and the IC50 (LRRK2 G2019S) was < 0.1 µM.
`COc1n[nH]c2ccc(O[C@H]3CCc4cc(C#N)c(Cl)nc43)cc12` (single isomer, unassigned) [185, enantiomer 1, 2-Chloro-7-[(3-methoxy-1H-indazol-5-yl)oxy]-6,7-dihydro-5H-cyclopenta[b]pyridine-3-carbonitrile] was tested, and the IC50 (LRRK2 WT) was < 0.1 µM and the IC50 (LRRK2 G2019S) was < 0.1 µM.
An IC50 (LRRK2 WT) of 1 to 10 µM and an IC50 (LRRK2 G2019S) of 0.1 to 1 µM were found for `COc1n[nH]c2ccc(O[C@H]3CCc4cc(C#N)c(Cl)nc43)cc12` (single isomer, unassigned) [185, enantiomer 2, 2-Chloro-7-[(3-methoxy-1H-indazol-5-yl)oxy]-6,7-dihydro-5H-cyclopenta[b]pyridine-3-carbonitrile] in this work.
For `COc1n[nH]c2ccc(O[C@H]3CCCc4cc(C#N)c(Cl)nc43)cc12` (single isomer, unassigned) [186, enantiomer 1, 2-Chloro-8-[(3-methoxy-1H-indazol-5-yl)oxy]-5,6,7,8-tetrahydroquinoline-3-carbonitrile], the IC50 (LRRK2 WT) was < 0.1 µM and the IC50 (LRRK2 G2019S) was < 0.1 µM.
An IC50 (LRRK2 WT) of 1 to 10 µM and an IC50 (LRRK2 G2019S) of 0.1 to 1 µM were found for `COc1n[nH]c2ccc(O[C@H]3CCCc4cc(C#N)c(Cl)nc43)cc12` (single isomer, unassigned) [186, enantiomer 2, 2-Chloro-8-[(3-methoxy-1H-indazol-5-yl)oxy]-5,6,7,8-tetrahydroquinoline-3-carbonitrile] in this work.
With `COc1n[nH]c2ccc(O[C@H]3CCc4cc(C#N)c(Br)nc43)cc12` (single isomer, unassigned) [187, enantiomer 1, 2-Bromo-7-[(3-methoxy-1H-indazol-5-yl)oxy]-6,7-dihydro-5H-cyclopenta[b]pyridine-3-carbonitrile] the IC50 (LRRK2 WT) was < 0.1 µM and the IC50 (LRRK2 G2019S) was < 0.1 µM.
An IC50 (LRRK2 WT) of 0.1 to 1 µM and an IC50 (LRRK2 G2019S) of 0.1 to 1 µM were found for `COc1n[nH]c2ccc(O[C@H]3CCc4cc(C#N)c(Br)nc43)cc12` (single isomer, unassigned) [187, enantiomer 2, 2-Bromo-7-[(3-methoxy-1H-indazol-5-yl)oxy]-6,7-dihydro-5H-cyclopenta[b]pyridine-3-carbonitrile] in this work.
With `COc1n[nH]c2ccc(O[C@H]3CCCc4cc(C#N)c(Br)nc43)cc12` (single isomer, unassigned) [188, enantiomer 1, 2-Bromo-8-[(3-methoxy-1H-indazol-5-yl)oxy]-5,6,7,8-tetrahydroquinoline-3-carbonitrile] the IC50 (LRRK2 WT) was < 0.1 µM and the IC50 (LRRK2 G2019S) was < 0.1 µM.
An IC50 (LRRK2 WT) of 1 to 10 µM and an IC50 (LRRK2 G2019S) of 0.1 to 1 µM were found for `COc1n[nH]c2ccc(O[C@H]3CCCc4cc(C#N)c(Br)nc43)cc12` (single isomer, unassigned) [188, enantiomer 2, 2-Bromo-8-[(3-methoxy-1H-indazol-5-yl)oxy]-5,6,7,8-tetrahydroquinoline-3-carbonitrile] in this work.
An IC50 (LRRK2 WT) of 1 to 10 µM and an IC50 (LRRK2 G2019S) of 0.1 to 1 µM were found for `COc1n[nH]c2ccc(O[C@H]3CCc4cc(C#N)c(Cl)cc43)cc12` (single isomer, unassigned) [189, enantiomer 1, 6-Chloro-1-[(3-methoxy-1H-indazol-5-yl)oxy]-2,3-dihydro-1H-indene-5-carbonitrile] in this work.
For `COc1n[nH]c2ccc(O[C@H]3CCc4cc(C#N)c(Cl)cc43)cc12` (single isomer, unassigned) [189, enantiomer 2, 6-Chloro-1-[(3-methoxy-1H-indazol-5-yl)oxy]-2,3-dihydro-1H-indene-5-carbonitrile], the IC50 (LRRK2 WT) was 0.1 to 1 µM and the IC50 (LRRK2 G2019S) was < 0.1 µM.
`Cc1cc2[nH]nc(-c3cnco3)c2cc1NC1CCCc2cc(C#N)cnc21` (single isomer, unassigned) [190, enantiomer 1, 8-[[6-Methyl-3-(1,3-oxazol-5-yl)-1H-indazol-5-yl]amino]-5,6,7,8-tetrahydroquinoline-3-carbonitrile] was tested, and the IC50 (LRRK2 WT) was < 0.1 µM and the IC50 (LRRK2 G2019S) was < 0.1 µM.
`N#Cc1ccc2c(c1)OCC[C@@H]2Nc1ccc2[nH]nc(-c3cnco3)c2c1` (single isomer, unassigned) [191, enantiomer 1, 4-((3-(oxazol-5-yl)-1H-indazol-5-yl)amino)chromane-7-carbonitrile] was tested, and the IC50 (LRRK2 WT) was 0.1 to 1 µM and the IC50 (LRRK2 G2019S) was < 0.1 µM.
With `N#Cc1ccc2c(c1)OCC[C@@H]2Nc1ccc2[nH]nc(-c3cnco3)c2c1` (single isomer, unassigned) [191, enantiomer 2, 4-{[3-(1,3-oxazol-5-yl)-1H-indazol-5-yl]amino}-3,4-dihydro-2H-1-benzopyran-7-carbonitrile] the IC50 (LRRK2 WT) was < 0.1 µM and the IC50 (LRRK2 G2019S) was < 0.1 µM.
An IC50 (LRRK2 WT) of 0.1 to 1 µM and an IC50 (LRRK2 G2019S) of 0.1 to 1 µM were found for `N#Cc1ccc2c(c1)OCC[C@@H]2Nc1ccc2[nH]nc(-c3cnoc3)c2c1` (single isomer, unassigned) [192, enantiomer 1, 4-((3-(Isoxazol-4-yl)-1H-indazol-5-yl)amino)chromane-7-carbonitrile] in this work.
With `N#Cc1ccc2c(c1)OCC[C@@H]2Nc1ccc2[nH]nc(-c3cnoc3)c2c1` (single isomer, unassigned) [192, enantiomer 2, 4-((3-(Isoxazol-4-yl)-1H-indazol-5-yl)amino)chromane-7-carbonitrile] the IC50 (LRRK2 WT) was < 0.1 µM and the IC50 (LRRK2 G2019S) was < 0.1 µM.
An IC50 (LRRK2 WT) of 1 to 10 µM and an IC50 (LRRK2 G2019S) of 0.1 to 1 µM were found for `N#Cc1ccc2c(c1)OCC[C@@H]2Nc1ccc2[nH]nc(I)c2c1` (single isomer, unassigned) [193, enantiomer 1, 4-((3-Iodo-1H-indazol-5-yl)amino)chromane-7-carbonitrile] in this work.
